Values after ≈ are worked out from the molar mass of the structure shown.
Columns and labels:
Staphylococcus aureus [1] = experiment: Potentiation of gentamicin-induced antibiofilm activity against Staphylococcus aureus assessed as disruption of preformed biofilm by measuring fold increase in gentamicin activity; type: functional
Staphylococcus aureus [2] = experiment: Potentiation of vancomycin-induced antibiofilm activity against Staphylococcus aureus assessed as disruption of preformed biofilm by measuring fold increase in vancomycin activity; type: functional
MDA-MB-231 [3] = experiment: Antitumor activity against human MDA-MB-231 cells xenografted in triple-negative breast cancer xenograft model assessed as tumor growth inhibition at 15 mg/kg relative to control; type: functional; conditions: read-out: TGI
MDA-MB-231 [4] = experiment: Antitumor activity against human MDA-MB-231 cells xenografted in triple-negative breast cancer xenograft model assessed as tumor growth inhibition at 30 mg/kg relative to control; type: functional; conditions: read-out: TGI
Staphylococcus sp. = experiment: Antibacterial activity against Staphylococcus species; type: functional
Acinetobacter = experiment: Antibacterial activity against Acinetobacter; type: functional
B16 = experiment: Cytotoxicity against mouse B16 cells; type: functional, cell-based
HCT-116 = experiment: Antiproliferative activity against human HCT-116 cells

Compound: CC(=O)[C@H](C)C[C@@H](C)C[C@H](C)C(=O)C1=C(O)/C(=C/c2ccccc2)NC1=O
- fold change (FC) (Staphylococcus aureus [1]): 115
- fold change (FC) (Staphylococcus aureus [2]): 31

Compound: CC(C)C[C@@H](CO)N1CCc2c(oc3c2C(=O)C(=O)c2ccccc2-3)C1
- inhibition in vivo at 15 mg/kg (MDA-MB-231 [3]): 42.2%
- inhibition in vivo at 30 mg/kg (MDA-MB-231 [4]): 60.4%

Compound: C#CC[C@H](NC(=O)c1ccc(NC(=O)c2ccc(C#N)cc2)cc1)C(=O)Nc1ccc(C(=O)Nc2ccc(C(=O)Nc3ccc(C(=O)O)cc3)c(O)c2OC(C)C)cc1
- MIC (Staphylococcus sp.): 0.06 mg/L (≈ 0.0757 µM)
- MIC (Acinetobacter): 0.06 mg/L (≈ 0.0757 µM)

Compound: COC[C@@H](OC)C(=O)O[C@H](CC[C@H](C)[C@H](C[C@@H]1OC(=O)C[C@@H](O)C/C=C/C(=O)[C@H](C)[C@H](OC)c2coc(n2)-c2coc(n2)-c2coc(n2)/C=C\C[C@H](OC)[C@H]1C)OC)[C@H](C)[C@H](OC(C)=O)[C@H](C)/C=C/N(C)C=O
- IC50 (B16): 0.0005 µM

Compound: COc1ccc2cc(NC(=O)C3=NO[C@H]4[C@H](O)C=C[C@@H](Cl)[C@@]4(O)C3)c(=O)oc2c1OC [TRICHODERMAMIDE B]
- IC50 (HCT-116): 0.12 µM

— ChEMBL document CHEMBL6083295, “Natural Products Driven Medicinal Chemistry” (J Med Chem, 2024)
